According to PubChem BioAssay (NCI):
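The compound was tested at five concentrations on cells cultured in 96-well plates, with a 48-hour exposure period. TGI: total growth inhibition.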

What was measured:
Test in all cases: NCI-60 cell line screen, 48 h
HT29 colon = tested on: HT29 colon
PC-3 prostate = tested on: PC-3 prostate
TK-10 renal = tested on: TK-10 renal
NCI-H460 lung = tested on: NCI-H460 lung
MCF7 breast = tested on: MCF7 breast
NCI-H226 lung = tested on: NCI-H226 lung
MDA-MB-231 breast = tested on: MDA-MB-231 breast
LOX IMVI melanoma = tested on: LOX IMVI melanoma
DU-145 prostate = tested on: DU-145 prostate
CAKI-1 renal = tested on: CAKI-1 renal
SK-OV-3 ovarian = tested on: SK-OV-3 ovarian
IGROV1 ovarian = tested on: IGROV1 ovarian
SW-620 colon = tested on: SW-620 colon
T-47D breast = tested on: T-47D breast
HCT-116 colon = tested on: HCT-116 colon
UACC-257 melanoma = tested on: UACC-257 melanoma
SF-268 CNS = tested on: SF-268 CNS
SNB-19 CNS = tested on: SNB-19 CNS
OVCAR-8 ovarian = tested on: OVCAR-8 ovarian
SNB-75 CNS = tested on: SNB-75 CNS

SMILES | TGI (HT29 colon) [µM] | TGI (PC-3 prostate) [µM] | TGI (TK-10 renal) [µM] | TGI (NCI-H460 lung) [µM] | TGI (MCF7 breast) [µM] | TGI (NCI-H226 lung) [µM] | TGI (MDA-MB-231 breast) [µM] | TGI (LOX IMVI melanoma) [µM] | TGI (DU-145 prostate) [µM] | TGI (CAKI-1 renal) [µM] | TGI (SK-OV-3 ovarian) [µM] | TGI (IGROV1 ovarian) [µM] | TGI (SW-620 colon) [µM] | TGI (T-47D breast) [µM] | TGI (HCT-116 colon) [µM] | TGI (UACC-257 melanoma) [µM] | TGI (SF-268 CNS) [µM] | TGI (SNB-19 CNS) [µM] | TGI (OVCAR-8 ovarian) [µM] | TGI (SNB-75 CNS) [µM]
O=C1OCC2(CO1)CC1C=CC2C1 (stereo not given) | > 100 | > 100 | > 100 | > 100 | > 100 | > 100 | > 100 | > 100 | > 100 | > 100 | > 100 | > 100 | > 100 | > 100 | > 100 | > 100 | > 100 | > 100 | – | –
C=CC1ON(C)CCc2cc(OC)c(OC)cc21 (stereo not given) | > 100 | > 100 | > 100 | > 100 | > 100 | > 100 | > 100 | > 100 | > 100 | > 100 | – | > 100 | > 100 | > 100 | > 100 | > 100 | > 100 | > 100 | > 100 | > 100
OC(c1cccnc1)C(F)(F)c1nc2ccccc2o1 (stereo not given) | > 100 | > 100 | > 100 | > 100 | > 100 | > 100 | > 100 | > 100 | > 100 | > 100 | – | > 100 | > 100 | > 100 | > 100 | > 100 | > 100 | > 100 | > 100 | > 100
CC(=O)OCC1OC(n2c(C)c(N=Nc3ccccc3)c(C)c(C#N)c2=S)C(OC(C)=O)C(OC(C)=O)C1OC(C)=O (stereo not given) | > 100 | > 100 | 81.8 | > 100 | > 100 | – | 62.3 | > 100 | > 100 | > 100 | > 100 | > 100 | > 100 | > 100 | 60 | > 100 | > 100 | > 100 | – | 7.03
CC(C)OCC(O)COc1ccc2ccc(=O)oc2c1 (stereo not given) | > 100 | > 100 | > 100 | > 100 | > 100 | – | > 100 | > 100 | > 100 | > 100 | > 100 | > 100 | > 100 | > 100 | > 100 | > 100 | > 100 | > 100 | > 100 | > 100
Cc1ccc(OCC2OC(C#N)C(Oc3ccc(C)cc3)C2Oc2ccc(C)cc2)cc1 (stereo not given) | > 100 | > 100 | – | > 100 | > 100 | > 100 | > 100 | – | > 100 | > 100 | > 100 | > 100 | > 100 | > 100 | > 100 | – | > 100 | > 100 | > 100 | > 100
